Source: patent US20230211362A1, “A METHOD OF COATING AN OCULAR PROSTHETIC DEVICE AND OTHER PROSTHETICS” (UEA Enterprises Limited, priority 2020, published 2023)
Where a name gives a salt, the structure may show the parent alone.

Assays:
[1] = In vitro drug release tests of nanoelectrosprayed contact lenses in PBS 7.4 under sink conditions, HPLC (Example 4); format: physicochemical; settings: zein film on contact lens (BIM1); 2 ml PBS 7.4, 35° C., 125 rpm; FIG. 32 bottom
Method: Glass vials containing 2 ml PBS 7.4 was incubated in a shaking incubator set at 35° C. with 125 rpm for 2 hours before in vitro experiments. All in vitro experiments were performed under sink conditions (i.e., the drug concentration within the in vitro dissolution medium was more than 10 times diluted in comparison to the saturated solubility of the drug in the medium). The nanoelectrosprayed lenses were placed into the vial and an aliquot of 1.5 ml was replaced with fresh PBS at regular intervals up to 24 hours (for KF the intervals were 0.5, 1, 3, 6, and 24 hours; for BIM the intervals were 0.25, 0.5, 0.75, 1, 2, 3, 4, 5, 6, and 24 hours). […] The total amount of ketotifen and bimatoprost sprayed on a contact lens was determined by the sum of the cumulative amount of the drug released during the in vitro study and the amount obtained from extraction.
The high-performance liquid chromatography system (Jasco, Japan) consists of a pump (PU-1580), an autosampler (AS-2055 Plus) and a 4-channel UV detector (UV-1570M). A Waters C18 column (250×4.6 mm i.d.; 5 μm particle size) was used under ambient conditions. The mobile phase of ketotifen fumarate and bimatoprost was prepared according to a method adopted from the literature. The mobile phase for ketotifen comprised methanol and 0.2% triethylamine (v/v) (80:20), running with 1 ml/min flow rate. […]

[2] = cited from earlier work

For `CCNC(=O)CCC/C=C\C[C@@H]1[C@@H](/C=C/[C@@H](O)CCc2ccccc2)[C@H](O)C[C@@H]1O` [bimatoprost], the “bimatoprost release after 6 hours” value [1] was 98% and the “bimatoprost released in the first 30 minutes” value [1] was 51%.
For `CN1CCC(=C2c3ccccc3CC(=O)c3sccc32)CC1` [Ketotifen fumarate], the “Log P” value [2] is given as 3.4, the “pKa (acid)” value [2] is given as 12.3 and the “solubility in aqueous solutions” value ([2]; slightly soluble in aqueous solutions) is given as 7.87 µg/mL.
